Where two headings read alike, the source gives them in different places.
Experiments:
[1] = system: constitutive nitric oxide synthase (cNOS) mRNA; experiment: Northern blot analysis of cNOS mRNA in PTE cells; type: cell-based, mouse; settings: 12 h
Experimental: FIGS. 8A and 8B. Norther blot analysis of constitutive nitric oxide synthase (cNOS) mRNA expression. (A) Autoradiogram of RNA separated by agarose-formaldehyde gel electrophoresis, transfered to nylon membranes, and probed with ^32 P-labelled oligonucleotide probes as described in Example 2, infra. (B) Reltive intensities of cNOS to 18S rRNA quantified by densitometry. Cells were treated with buffer, angiotensin (1 μM), angiotensin with osteopontin (0.1 and 0.001 nM), or ionomycin, as indicated in B. The blots in (A) correspond to the bars in (B).
Northern Blot Analysis. Total RNA was isolated using TRI reagent (Molecular Research Center, Cincinnati, Ohio) after 12 h stimulation in the medium (see Example 1). Rat brain constitutive nitric oxide synthase (cNOS) cDNA was obtained as described (Bredt et al., 1991, Nature 351:714-718). Five μg of total RNA was separated on an agarose-formaldehyde gel, transferred onto a nylon membrane (GeneScreen Plus, NEN Research Products, Du Pont, Boston, Mass.) and hybridized with a ^32 P-labeled cNOS cDNA probe. The blot was washed 3 times with 0.5×SSC, 0.1% SDS at 65° C. and autoradiographed for 1 to 3 days. The membrane was stripped and successively hybridized to a mouse 18S rRNA probe. The relative intensities of cNOS to 18S rRNA in the resulting autoradiograms were quantified by densitometry (Pharmacia LKB, UltraScan XL).

[2] = system: mouse primary kidney PTE cells; experiment: Nitrite production over 3 days in PTE cells treated with angiotensin II; type: cell-based; settings: for nitrite production: agent alone, 3 days incubation; for effect on A II-induced nitrite production: 3 days incubation with A II
Experimental: FIG. 7. Angiotensin II enhances nitrite production by a process that can be reversed by OPN in PTE cells. Primary mouse kidney proximal tubule epithelial cells were grown as described in the Examples, infra. Cell were cultured and the medium collected after three days of growth in medium with the indicated supplements.
Preparation of Cells. CD-1 mice aged 4-6 weeks were obtained from Laboratory Animal Services of Nelson Biological Laboratory, Rutgers University, New Jersey. Primary mouse kidney proximal tubule epithelial (PTE) cells were prepared as previously described in Example 1. For NO measurement, cells were subcultured into 24-well tissue culture plates (Linbro, Hamden, Conn.) at 5×10^4 cells per well and incubated overnight for cell attachment. After removal of the medium, the cells were washed twice with Dulbecco's phosphate buffered saline (0.2 g/l KCl, 0.2 g/l KH2 PO4, 8 g/l NaCl, 1.15 g/l Na2 HPO4) and re-fed phenol red-free RPMI 1640 medium (Gibco) containing 10 μg/ml tetrahydrobiopterin (ICN Biochemicals, Cleveland Ohio).
Measurement of NO Production. Synthesis of NO in the medium over a 3-day period was determined by the accumulation of nitrite, a stable oxidized product of NO (Marletta, 1988, Chem. Res. Toxicol. 1:249-257). Nitrite was measured with the Griess reagents using sodium nitrite as standard, as described in Example 1.

[3] = system: primary mouse PTE cells; experiment: Intracellular calcium mobilization (Indo-1 AM) in PTE cells; type: cell-based
Experimental: FIGS. 9A-D. Induction of calcium mobilization by ionomycin, angiotensin II and osteopontin in PTE cells. Cells were incubated with 1 μM Indo-1 AM [1-(2-amino-5-(6-carboxyindol-2-yl)phenoxy)-2-(2'-amino-5'-methylphenoxy)ethane-N,N,N',N'-tetraacetic acid) and analyzed on a Meridian 570 Anchored Cell Analysis System (ACAS) equipped with an Innova 90 5-W laser adjusted to an output of 100 mW. Calcium mobilization was quantified by scanning single 150×150 μm fields containing about 10 cells every 30 s for a total of 10 min and quantifying the emission at 500 nm (calcium-free Indo-1) and 400 nm (calcium-bound Indo-1). After 1 min, the cells were stimulated with (A) control, (B) 10 μM ionomycin, (C) […] angiotensin II, and (D) 2 nM or 0.1 nM OPN.
Measurement of intracellular calcium mobilization. Primary mouse PTE cells were subcultured onto collagen-coated Nunc coverglass chambers (Nunc, Inc., Naperville, Ill.). Intracellular calcium mobilization was monitored using a fluorescent, calcium-sensitive indicator Indo-1-acetoxymethyl ester (Indo-1 AM) (Molecular Probes, Eugene, Oreg.) and qualified on a Meridian 570 Anchored Cell Analysis (ACAS) equipped with an Innova 90-5W laser adjusted to an output of 100 mW. Cells were washed with HBSS containing 0.3% bovine serum albumin (BSA) and incubated with 1 μM Indo-1 AM at 37° C. for 30 min. Then, the cells were washed 3 times and 1 ml of HBSS containing 0.3% BSA was added. The calcium ratio was determined by scanning single 150×150 μm field containing about 10 cells every 30 sec for a total of 10 min and recording the emission at 500 nm (calcium-free Indo-1) and 400 nm (calcium-saturated Indo-1). Intracellular calcium concentrations were determined by generating a standard curve using a known calcium solution (Gardner et al., 1993, J. Leukocyte Biol. 53:190-196). All data were analyzed with Meridian ACAS statistical software.

[4] = system: primary mouse kidney proximal tubule epithelial cells; experiment: Nitrite accumulation (Griess reagent) in PTE cells stimulated with LPS and γ-IFN; type: cell-based; settings: for effect on LPS and γ-IFN-induced nitrite (NO) production: agent alone on stimulated cells, nitrite at 24 h; for nitrite production relative to the LPS and γ-IFN-stimulated cells: measured at 24 h
Experimental: Cell culture. […] Clin. Invest. 91:2138-43). Briefly, slices of cortex from decapsulated kidneys were washed in unsupplemented RPMI 1640 and cut int 1-2 mm^3 pieces, which were then incubated for 20 min. at 37° C. in Krebs-Henseleit buffer (Sigma Chemical Co., St. Louis, Mo.) supplemented with 10 mM HEPES (pH 7.5), 1 g/l D-glucose, 200 mg/1 sodium pyruvate, 0.125 mg/ml collagenase (Type 1A, Sigma), and 0.6 U/ml dispase (Boehringer Mannheim Biochemica, Indianapolis, Ind.). The digested cortex was centrifuged at 70×g for 3 min and the cells resuspended in RPMI 1640 supplemented with 10 mM HEPES (pH 7.5), 5 μg/ml human transferrin, 50 nM dexamethasone, 5 μg/ml insulin (Gibco, Gaithersberg, Md.), 3% fetal bovine serum, 100 U/ml penicillin and 100 μg/ml streptomycin. For NO measurements, cells were subcultured into 24-well culture plates (Linbro, Hamden, Conn.) at 5×10^4 cells/16-mm well and incubated overnight. After removal of the medium, the cells were washed 3 times with Dulbecco's phosphate buffered saline (Sigma D5652), and re-fed with phenol red-free RPMI 1640 medium containing 2 mM […] and 10 μg/ml tetrahydrobiopterin (ICN Biochemicals, Cleveland, Ohio) in the presence or absence of 100 ng/ml lipopolysaccharide (LPS) (Sigma) and 100 U/ml recombinant mouse γ-interferon (γ-IFN). Measurement of NO (as NO2^-) production. Nitric oxide is a short-lived reactive nitrogen intermediate that in aqueous solution in the absence of oxyhemoproteins or superoxide, is oxidized primarily to nitrite (Ignarro et al., 1993, Proc. Natl. Acad. Sci. U.S.A. 90:8103-07). Under such conditions NO production can be assessed by the accumulation of nitrite in the medium. […] Biochem. 126:131-138).

[5] = system: rabbit kidney PTE cells; settings: primary cultures of rabbit kidney PTE cells; Norman et al. 1987; cited from earlier work
[6] = system: osteoclasts; settings: Zimolo et al. 1993; cited from earlier work
[7] = system: iNOS protein; experiment: Immunofluorescence analysis of iNOS protein in PTE cells; type: cell-based, mouse; settings: 100 pM OPN, LPS 100 ng/ml and γIFN 100 U/ml, 48 h
Experimental: FIGS. 4A-D. OPN-induced suppression of iNOS protein in PTE cells. Cells were fixed and permeabilized by incubation of 30 min with 0.4 mM lysophosphatidylcholine in 1% buffered formalin. After washing three times with phosphate-buffered saline, cells were blocked with 0.1% bovine serum albumin in phosphate-buffered saline and then incubated for 4 h first with a 1:10,000 dilution of rabbit peptide antibody to the C-terminal 10 amino acids of iNOS. After washing, the cells were incubated with FITC-conjugated goat-anti rabbit secondary antibody (Cappel, West Chester, Pa.). After an additional 30 min, the cells were washed and analyzed for fluorescence intensity using a Meridian ACAS anchored cell analysis system. A) Upper left, untreated control cells; B) upper right, cells treated for 48 h with LPS (100 ng/ml) and γIFN (100 U/ml); C) lower left, cells treated for 48 h with OPN (100 pM); D) lower right, cells treated for 48 h with LPS, γIFN and OPN. The color bar represents relative fluorescence intensity on the four-decade log scale with white being the most intense.

[8] = system: inducible nitric oxide synthase (iNOS) mRNA; experiment: Northern blot analysis of iNOS mRNA in stimulated PTE cells; type: cell-based, mouse; settings: measured at 8 h, subconfluent PTE cells
Experimental: FIGS. 3A and 3B. Inhibition of inducible NO-synthase (iNOS) gene induction by OPN. A) Northern blot analysis of iNOS mRNA and 18s rRNA levels in primary mouse kidney epithelial cells 8 h after treatment. B) Accumulation of nitrite in the medium 24 h after treatment. Values are the mean±standard error from three separate plates. Lane 1: control; lanes 2, 4 and 5: stimulated with 100 ng/ml LPS plus 100 U/ml γIFN; lanes 3 and 4: treated with 1 pM OPN; lanes 5 and 6: treated with 100 pM OPN.
Northern blot analysis. Total RNA was isolated using the TRI reagent (Molecular Research Center, Cincinnati, Ohio). The RNA (5 μg) was fractionated on formaldehyde-agarose gels, blotted and probed using standard procedures (Sambrook et al., 1989, supra). The mouse cDNA corresponding to the macrophage inducible nitric oxide synthase gene (iNOS) has been described (Lyons, 1992, J. Biol. Chem. 267:6370-74).

C[C@H](CCC(=O)O)C[C@H](C)C[C@H](C)C(=O)/C=C(\O)[C@H](C)C[C@H](C)C/C=C/[C@@H](C)[C@@H](O)[C@@H](C)[C@@H](O)C[C@@H]1CC[C@@](C)([C@H]2CC[C@@](C)([C@@H](C)O)O2)O1 [Ionomycin]
cNOS mRNA abundance ([1]; agent alone): greatly increase
nitrite production [2]: increased nitrite production
calcium mobilization ([3]; 10 μM ionomycin): an increase in cytosolic free calcium

CNC(=N)NCCC[C@H](N)C(=O)O [L-NMA, N^G -methyl-L-arginine, reference compound]
effect on LPS and γ-IFN-induced nitrite (NO) production [4]: Inhibition of nitrite accumulation
effect on A II-induced nitrite production [2]: inhibited the nitrite production induced by A II

A II: angiotensin (the x-mer peptide produced from angiotensinogen), obtained from Sigma (DRVYIHPF; Angiotensin-2; UniProt P01019 25-32, looked up)
concentration necessary to induce a transient rise in cytosolic free calcium [5]: 5 µM
enhancement of cNOS mRNA ([1]; angiotensin 1 μM, densitometry relative to rRNA): 3.5 fold
nitrite production [2]: dose-dependent increase in nitrite accumulation
calcium mobilization [3]: a fast and transient rise in cytosolic free calcium levels
calcium mobilization ([3]; 1 μM, within 10 min): only a delayed and small transient response in calcium mobilization

Ac-PTVDVPDGRGDSLAYGLRSK-NH2 [OPP]
effect on LPS and γ-IFN-induced nitrite (NO) production [4]: effective at reducing LPS and γ-IFN-induced NO production

OPN (purified from urine): OPN purified from urine, used by Zimolo et al. (cited)
concentration raising intracellular free Ca++ level [6]: 1 pM

OPN: Recombinant human osteopontin, secreted 44 kDa RGD-containing phosphoprotein, purified from transfected MH2 human embryonic kidney cells
iNOS protein concentration in stimulated cells [7]: diminished concentration of iNOS protein
effect on amount of A II-induced cNOS mRNA ([1]; OPN 0.1 nM or 1 pM with A II): only a modest effect
level of the 4 kb mRNA species (iNOS mRNA), normalized to 18 S rRNA ([8]; 1 pM OPN added simultaneously with LPS and γ-IFN): 54%
level of the 4 kb mRNA species (iNOS mRNA), normalized to 18 S rRNA ([8]; 100 pM OPN added simultaneously with LPS and γ-IFN): 31%
nitrite production relative to the LPS and γ-IFN-stimulated cells ([4]; 1 pM OPN added simultaneously with inducers): 45%
nitrite production relative to the LPS and γ-IFN-stimulated cells ([4]; 100 pM OPN added simultaneously with inducers): 24%
time-dependence of inhibition of NO production ([4]; OPN 100 pM added 60 min prior to γ-IFN and LPS, nitrite after 24 h): more inhibitory than when added simultaneously
effective concentration for suppression of NO production ([4]; confluent cells): required higher concentrations
effective concentration for suppression of NO production ([4]; subconfluent PTE cells): ~ 10 pM
effect on A II-induced nitrite production [2]: almost completely blocked
concentration dependence of calcium reduction ([3]; 2 nM compared with 0.1 nM OPN): the smaller concentration of OPN was more potent in reducing calcium levels
calcium mobilization ([3]; 2 nM or 0.1 nM OPN): a reduction in the cytosolic free calcium

Reference: US5695761A, “Suppression of nitric oxide production by osteopontin” (Rutgers University, priority 1993, dated 1997)
